Biological target: Gamma-aminobutyric acid receptor subunit alpha-1/beta-2/gamma-2 (Rattus norvegicus, UniProt P62813+P63138+P18508)
Assay: Binding affinity for recombinant rat GABA-A receptor alpha-1-beta-2-gamma-2 subunits expressed in HEK293 cells

Gamma-aminobutyric acid receptor subunit alpha-1/beta-2/gamma-2, sequence (P62813 whole entry): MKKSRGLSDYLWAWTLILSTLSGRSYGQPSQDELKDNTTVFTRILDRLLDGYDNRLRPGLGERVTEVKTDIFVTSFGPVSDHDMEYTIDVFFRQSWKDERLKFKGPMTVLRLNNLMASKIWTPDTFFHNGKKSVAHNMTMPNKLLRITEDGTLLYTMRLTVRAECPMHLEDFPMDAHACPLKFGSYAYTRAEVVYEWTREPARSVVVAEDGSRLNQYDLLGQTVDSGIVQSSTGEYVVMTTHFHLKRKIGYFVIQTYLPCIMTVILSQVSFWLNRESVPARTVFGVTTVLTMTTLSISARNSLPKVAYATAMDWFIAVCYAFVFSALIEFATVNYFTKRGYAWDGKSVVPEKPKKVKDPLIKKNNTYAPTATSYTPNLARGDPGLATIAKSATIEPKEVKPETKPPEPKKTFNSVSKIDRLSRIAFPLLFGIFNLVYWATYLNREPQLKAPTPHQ
Gamma-aminobutyric acid receptor subunit alpha-1/beta-2/gamma-2, sequence (P63138 whole entry): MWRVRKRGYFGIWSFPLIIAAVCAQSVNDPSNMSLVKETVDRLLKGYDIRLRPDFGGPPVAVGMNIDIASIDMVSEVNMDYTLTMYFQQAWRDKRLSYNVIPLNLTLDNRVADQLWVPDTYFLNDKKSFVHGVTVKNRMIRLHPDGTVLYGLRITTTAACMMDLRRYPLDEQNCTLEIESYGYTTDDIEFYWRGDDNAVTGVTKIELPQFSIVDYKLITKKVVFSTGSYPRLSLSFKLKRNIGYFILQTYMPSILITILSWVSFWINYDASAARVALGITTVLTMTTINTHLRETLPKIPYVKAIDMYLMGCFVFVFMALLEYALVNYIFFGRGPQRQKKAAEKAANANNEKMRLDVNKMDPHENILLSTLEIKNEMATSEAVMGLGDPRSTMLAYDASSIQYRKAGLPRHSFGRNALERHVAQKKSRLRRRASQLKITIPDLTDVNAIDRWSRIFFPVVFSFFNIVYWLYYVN
Gamma-aminobutyric acid receptor subunit alpha-1/beta-2/gamma-2, sequence (P18508 whole entry): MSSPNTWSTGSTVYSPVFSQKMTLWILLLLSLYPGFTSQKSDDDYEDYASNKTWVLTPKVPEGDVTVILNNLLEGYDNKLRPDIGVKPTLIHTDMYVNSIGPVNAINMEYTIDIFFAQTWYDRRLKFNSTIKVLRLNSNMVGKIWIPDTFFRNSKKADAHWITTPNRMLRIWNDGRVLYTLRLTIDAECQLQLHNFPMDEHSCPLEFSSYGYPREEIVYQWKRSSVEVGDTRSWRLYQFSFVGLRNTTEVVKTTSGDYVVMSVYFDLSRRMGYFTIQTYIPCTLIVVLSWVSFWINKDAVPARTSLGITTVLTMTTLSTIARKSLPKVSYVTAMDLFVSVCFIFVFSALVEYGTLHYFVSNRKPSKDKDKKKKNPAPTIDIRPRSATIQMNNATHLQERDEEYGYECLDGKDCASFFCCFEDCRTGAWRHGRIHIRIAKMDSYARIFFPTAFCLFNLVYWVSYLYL

Compound	Ki
O=c1c(-c2ccsc2)cnc2c(-c3cccc(Br)c3)c[nH]n12 [3-(3-Bromo-phenyl)-6-thiophen-3-yl-4H-pyrazolo[1,5-a]pyrimidin-7-one]	10 nM
O=c1c(-c2ccsc2)cnc2c(-c3cccc(C(F)(F)F)c3)c[nH]n12 [6-Thiophen-3-yl-3-(3-trifluoromethyl-phenyl)-4H-pyrazolo[1,5-a]pyrimidin-7-one]	10 nM

Source: BindingDB's records for doi:10.1021/jm020999w (University of Firenze, 2003)
